Our source for the Ki values is BindingDB's records for doi:10.1038/sj.bjp.0702201 (Smithkline Beecham Pharmaceuticals, 1998).

One test deals with D(3) dopamine receptor (Homo sapiens, UniProt P35462).
Test [1] concerns the target 5-hydroxytryptamine receptor 2A (Homo sapiens, UniProt P28223).
In test [2] the target is 5-hydroxytryptamine receptor 6 (Homo sapiens, UniProt P50406).
Test [3] has as its target 5-hydroxytryptamine receptor 1B (Homo sapiens, UniProt P28222).
The target of test [4] is 5-hydroxytryptamine receptor 2B (Homo sapiens, UniProt P41595).
For test [5], the target named is 5-hydroxytryptamine receptor 7 (Homo sapiens, UniProt P34969).
Test [6] addresses 5-hydroxytryptamine receptor 1E (Homo sapiens, UniProt P28566).
The target in test [7] is Muscarinic acetylcholine receptor M3 (Homo sapiens, UniProt P20309).
The target of the next test is D(2) dopamine receptor (Homo sapiens, UniProt P14416).
In test [8] the target is T1, Alpha-1B adrenergic receptor (Homo sapiens, UniProt P35368).
T1 sequence (P35368 whole entry): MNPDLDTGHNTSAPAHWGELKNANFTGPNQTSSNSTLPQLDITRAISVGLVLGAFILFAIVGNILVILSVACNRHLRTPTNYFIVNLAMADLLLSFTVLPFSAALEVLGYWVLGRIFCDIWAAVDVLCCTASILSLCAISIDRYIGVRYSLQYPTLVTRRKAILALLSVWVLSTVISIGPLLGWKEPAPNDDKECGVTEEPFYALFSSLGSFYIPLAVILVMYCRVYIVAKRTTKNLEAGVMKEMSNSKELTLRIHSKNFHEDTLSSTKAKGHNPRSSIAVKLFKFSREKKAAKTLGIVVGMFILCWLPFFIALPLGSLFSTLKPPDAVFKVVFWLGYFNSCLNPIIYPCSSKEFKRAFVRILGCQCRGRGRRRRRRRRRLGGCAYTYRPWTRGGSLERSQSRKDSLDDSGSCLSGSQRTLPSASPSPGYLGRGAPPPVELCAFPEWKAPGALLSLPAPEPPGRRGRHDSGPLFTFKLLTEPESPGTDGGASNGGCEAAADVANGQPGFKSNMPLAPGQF

Test [9] addresses T2, 5-hydroxytryptamine receptor 1F (Homo sapiens, UniProt P30939).
T2 sequence (P30939 whole entry): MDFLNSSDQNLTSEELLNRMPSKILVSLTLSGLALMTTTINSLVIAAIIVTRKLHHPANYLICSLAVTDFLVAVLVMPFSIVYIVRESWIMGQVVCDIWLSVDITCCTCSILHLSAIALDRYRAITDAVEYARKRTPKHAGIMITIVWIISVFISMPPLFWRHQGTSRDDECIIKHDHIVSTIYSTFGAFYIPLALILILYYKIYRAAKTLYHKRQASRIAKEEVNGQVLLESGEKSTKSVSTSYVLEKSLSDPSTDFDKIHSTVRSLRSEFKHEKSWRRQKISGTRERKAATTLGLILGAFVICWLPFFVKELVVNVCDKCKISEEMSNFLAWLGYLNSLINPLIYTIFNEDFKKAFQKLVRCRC

In test [10] the target is 5-hydroxytryptamine receptor 4 (Sus scrofa, UniProt Q29006).
In test [11] the target is T3, 5-hydroxytryptamine receptor 2C (Homo sapiens, UniProt P28335).
T3 sequence (P28335 whole entry): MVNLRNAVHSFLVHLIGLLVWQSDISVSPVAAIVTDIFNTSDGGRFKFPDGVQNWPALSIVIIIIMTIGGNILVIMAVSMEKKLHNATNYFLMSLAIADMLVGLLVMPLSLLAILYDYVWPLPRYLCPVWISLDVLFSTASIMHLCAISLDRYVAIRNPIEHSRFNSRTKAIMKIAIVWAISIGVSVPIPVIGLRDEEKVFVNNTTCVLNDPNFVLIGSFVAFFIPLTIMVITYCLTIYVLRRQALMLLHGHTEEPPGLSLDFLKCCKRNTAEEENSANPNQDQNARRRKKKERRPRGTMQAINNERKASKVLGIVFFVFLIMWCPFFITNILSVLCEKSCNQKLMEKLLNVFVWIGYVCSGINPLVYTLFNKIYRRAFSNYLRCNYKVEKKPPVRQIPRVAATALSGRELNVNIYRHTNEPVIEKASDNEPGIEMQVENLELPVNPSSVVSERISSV

Chain of Muscarinic acetylcholine receptor M3 (P20309 whole entry): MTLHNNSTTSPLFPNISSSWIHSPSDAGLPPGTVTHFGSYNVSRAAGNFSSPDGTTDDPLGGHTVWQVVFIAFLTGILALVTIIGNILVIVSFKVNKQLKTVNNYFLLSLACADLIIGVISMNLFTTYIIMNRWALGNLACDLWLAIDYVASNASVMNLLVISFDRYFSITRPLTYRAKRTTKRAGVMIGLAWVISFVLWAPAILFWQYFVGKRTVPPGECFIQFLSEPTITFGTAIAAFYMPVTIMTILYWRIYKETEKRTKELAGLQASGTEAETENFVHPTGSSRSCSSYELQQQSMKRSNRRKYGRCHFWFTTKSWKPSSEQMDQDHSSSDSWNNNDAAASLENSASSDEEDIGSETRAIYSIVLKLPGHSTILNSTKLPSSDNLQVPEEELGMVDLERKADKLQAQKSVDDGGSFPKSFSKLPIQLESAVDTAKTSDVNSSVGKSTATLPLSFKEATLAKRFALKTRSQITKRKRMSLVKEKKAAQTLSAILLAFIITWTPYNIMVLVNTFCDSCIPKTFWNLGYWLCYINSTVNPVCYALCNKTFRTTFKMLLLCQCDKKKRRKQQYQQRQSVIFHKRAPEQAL
Chain of 5-hydroxytryptamine receptor 2A (P28223 whole entry): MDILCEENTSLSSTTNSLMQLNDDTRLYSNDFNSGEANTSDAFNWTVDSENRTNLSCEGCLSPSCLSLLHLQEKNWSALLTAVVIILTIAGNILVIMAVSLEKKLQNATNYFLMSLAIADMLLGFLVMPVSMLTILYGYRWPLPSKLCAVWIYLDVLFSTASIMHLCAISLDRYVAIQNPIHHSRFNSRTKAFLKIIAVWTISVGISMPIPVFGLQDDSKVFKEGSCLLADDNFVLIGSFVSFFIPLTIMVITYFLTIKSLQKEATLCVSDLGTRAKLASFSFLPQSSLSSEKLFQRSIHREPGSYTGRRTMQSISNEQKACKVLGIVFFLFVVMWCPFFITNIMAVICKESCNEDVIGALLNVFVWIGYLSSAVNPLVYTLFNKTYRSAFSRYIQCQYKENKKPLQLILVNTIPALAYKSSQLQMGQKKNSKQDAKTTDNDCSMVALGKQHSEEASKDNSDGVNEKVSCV
Chain of 5-hydroxytryptamine receptor 2B (P41595 whole entry): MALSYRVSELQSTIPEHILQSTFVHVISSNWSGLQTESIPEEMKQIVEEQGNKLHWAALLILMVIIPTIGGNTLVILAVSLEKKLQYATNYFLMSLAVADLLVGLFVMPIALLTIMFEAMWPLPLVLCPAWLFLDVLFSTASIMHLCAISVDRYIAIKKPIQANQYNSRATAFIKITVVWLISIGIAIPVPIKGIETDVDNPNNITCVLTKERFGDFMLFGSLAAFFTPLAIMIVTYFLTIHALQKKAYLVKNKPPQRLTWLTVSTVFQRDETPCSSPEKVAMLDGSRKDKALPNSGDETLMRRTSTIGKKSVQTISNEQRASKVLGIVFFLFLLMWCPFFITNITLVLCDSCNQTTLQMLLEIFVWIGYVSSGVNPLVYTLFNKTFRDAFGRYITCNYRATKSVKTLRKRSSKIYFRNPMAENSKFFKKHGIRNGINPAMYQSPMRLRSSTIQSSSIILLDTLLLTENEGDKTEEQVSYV
Chain of 5-hydroxytryptamine receptor 6 (P50406 whole entry): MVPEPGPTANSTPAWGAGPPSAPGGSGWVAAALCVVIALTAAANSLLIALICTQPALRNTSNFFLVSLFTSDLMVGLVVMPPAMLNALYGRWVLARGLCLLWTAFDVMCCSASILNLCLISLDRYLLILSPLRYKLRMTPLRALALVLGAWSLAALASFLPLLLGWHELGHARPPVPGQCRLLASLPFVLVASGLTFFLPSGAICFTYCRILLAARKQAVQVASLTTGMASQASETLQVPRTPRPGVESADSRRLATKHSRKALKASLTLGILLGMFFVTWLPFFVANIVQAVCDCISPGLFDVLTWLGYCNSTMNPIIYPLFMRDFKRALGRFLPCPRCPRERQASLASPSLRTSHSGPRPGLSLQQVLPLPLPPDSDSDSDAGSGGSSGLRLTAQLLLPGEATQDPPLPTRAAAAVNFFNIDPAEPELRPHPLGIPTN
Chain of 5-hydroxytryptamine receptor 1B (P28222 whole entry): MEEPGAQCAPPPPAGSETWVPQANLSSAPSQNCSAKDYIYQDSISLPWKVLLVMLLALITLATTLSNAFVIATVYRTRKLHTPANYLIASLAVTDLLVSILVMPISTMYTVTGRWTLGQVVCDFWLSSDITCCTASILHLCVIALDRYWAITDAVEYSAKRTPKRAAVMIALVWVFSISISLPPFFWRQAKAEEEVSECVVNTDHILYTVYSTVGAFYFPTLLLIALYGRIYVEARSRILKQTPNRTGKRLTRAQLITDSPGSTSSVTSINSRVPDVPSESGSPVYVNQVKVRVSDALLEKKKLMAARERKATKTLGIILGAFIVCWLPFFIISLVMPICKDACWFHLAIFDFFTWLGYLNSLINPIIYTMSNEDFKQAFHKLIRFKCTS
Chain of D(3) dopamine receptor (P35462 as listed by the source): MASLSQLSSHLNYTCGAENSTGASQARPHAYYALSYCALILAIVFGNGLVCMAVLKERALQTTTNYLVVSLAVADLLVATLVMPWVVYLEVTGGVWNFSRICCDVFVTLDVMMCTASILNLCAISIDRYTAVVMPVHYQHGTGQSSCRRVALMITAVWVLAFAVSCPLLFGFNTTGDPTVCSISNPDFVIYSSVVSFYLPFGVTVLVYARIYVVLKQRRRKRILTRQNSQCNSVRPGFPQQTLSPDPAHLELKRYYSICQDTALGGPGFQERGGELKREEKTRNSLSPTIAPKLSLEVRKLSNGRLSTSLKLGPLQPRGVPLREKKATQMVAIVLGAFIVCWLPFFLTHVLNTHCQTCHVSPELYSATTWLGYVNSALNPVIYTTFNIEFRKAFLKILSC
Chain of 5-hydroxytryptamine receptor 4 (Q29006 whole entry): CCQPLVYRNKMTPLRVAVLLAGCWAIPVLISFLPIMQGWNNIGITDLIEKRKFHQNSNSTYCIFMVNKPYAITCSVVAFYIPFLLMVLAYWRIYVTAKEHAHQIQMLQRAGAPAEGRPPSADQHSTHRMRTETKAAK
Chain of 5-hydroxytryptamine receptor 7 (P34969 whole entry): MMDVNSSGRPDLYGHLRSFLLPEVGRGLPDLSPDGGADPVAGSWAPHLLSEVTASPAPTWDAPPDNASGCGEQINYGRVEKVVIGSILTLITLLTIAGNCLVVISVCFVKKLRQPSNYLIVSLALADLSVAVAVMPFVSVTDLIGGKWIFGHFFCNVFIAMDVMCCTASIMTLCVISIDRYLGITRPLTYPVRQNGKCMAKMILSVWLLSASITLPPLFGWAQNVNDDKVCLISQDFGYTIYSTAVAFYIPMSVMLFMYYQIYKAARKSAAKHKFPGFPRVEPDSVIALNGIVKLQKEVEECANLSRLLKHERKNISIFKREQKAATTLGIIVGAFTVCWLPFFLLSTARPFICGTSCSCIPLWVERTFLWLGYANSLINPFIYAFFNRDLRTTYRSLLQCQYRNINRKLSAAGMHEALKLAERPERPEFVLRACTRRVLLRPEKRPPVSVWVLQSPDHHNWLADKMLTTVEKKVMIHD
Chain of D(2) dopamine receptor (P14416 whole entry): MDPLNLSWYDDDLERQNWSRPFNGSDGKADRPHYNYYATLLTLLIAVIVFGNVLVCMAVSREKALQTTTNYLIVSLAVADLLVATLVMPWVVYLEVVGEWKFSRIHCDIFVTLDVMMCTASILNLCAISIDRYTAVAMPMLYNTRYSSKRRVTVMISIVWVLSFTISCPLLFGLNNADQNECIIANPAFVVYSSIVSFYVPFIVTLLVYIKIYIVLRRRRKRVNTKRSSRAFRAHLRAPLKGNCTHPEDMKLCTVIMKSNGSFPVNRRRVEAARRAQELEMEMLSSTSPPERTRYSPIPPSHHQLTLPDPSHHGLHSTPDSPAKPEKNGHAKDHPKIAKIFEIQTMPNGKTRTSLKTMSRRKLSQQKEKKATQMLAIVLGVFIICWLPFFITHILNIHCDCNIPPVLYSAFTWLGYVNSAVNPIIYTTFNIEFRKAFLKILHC
Chain of 5-hydroxytryptamine receptor 1E (P28566 whole entry): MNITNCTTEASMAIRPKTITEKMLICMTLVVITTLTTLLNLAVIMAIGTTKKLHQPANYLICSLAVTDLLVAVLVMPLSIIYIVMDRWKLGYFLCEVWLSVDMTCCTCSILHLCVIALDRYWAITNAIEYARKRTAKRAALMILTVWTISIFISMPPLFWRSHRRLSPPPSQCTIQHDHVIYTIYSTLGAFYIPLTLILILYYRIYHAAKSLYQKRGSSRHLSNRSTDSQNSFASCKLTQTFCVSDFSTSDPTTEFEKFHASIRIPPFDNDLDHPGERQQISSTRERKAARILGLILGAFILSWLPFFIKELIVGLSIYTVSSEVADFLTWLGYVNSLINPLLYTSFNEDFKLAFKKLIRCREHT

Usually Ki stands for a measure of affinity in units of concentration, obtained from inhibition or displacement. Lower therefore signals a stronger hold on the target. Take `CCCCCCOc1nsnc1C1=CCCN(C)C1`: the Ki on D(3) dopamine receptor was found to be 398 nM; in test [1], 126 nM; in test [2], 1260 nM; in [3] it was 50.1 nM; in [4], 19.9 nM; in [5] it was 126 nM. Moreover, the Ki in [6] turned out to be 2510 nM; in [7], 39.8 nM; on D(2) dopamine receptor it was 1000 nM; in test [8] it was 1580 nM; in test [9], 316 nM; in [10], 251 nM. The molecule also came in with a Ki in test [11] of 39.8 nM.
